Measured values: patent EP0393104B1, “MEASUREMENT OF PGE 2 (PROSTAGLANDIN E 2) LEVELS IN PATIENTS WITH CHRONIC INFLAMMATORY BOWEL DISEASE” (priority 1987, dated 1989)

Assays:
[1] = HPLC of ADS, 5-ASA and Ac-5-ASA in faecal dialysates (equilibrium in vivo dialysis of faeces); design: species or system patients; settings: for concentration: ulcerative colitis, read-out: Concentrations in faecal dialysates
Protocol: (§1) Before entry, at the two week's visit, and at the six and 12 months' visits equilibrium in vivo dialysis of faeces as well as equilibrium in vivo dialysis of rectum were done prior to endoscopy of rectum and sigmoid colon with biopsies. ADS was administered in gelatin capsules, each containing 250 mg of the powdered drug without additives.
(§2) Equilibrium in vivo dialysis of faeces was done as previously described in detail by pooling the contents of five swallowed dialysis bags following their intestinal transit (faecal dialysate).
(§3) The lower detection limits in serum and in faecal dialysates were 1.0 umol/I and 6.0 umol/l, respectively. Prostaglandin E2 was measured by the radioimmunologic method, referred to above, validated by gas chromatography-mass spectrometry. These measurements were done blindly and independently of the assessment of disease activity and clinicians were unaware of the results until the data had been completed.

[2] = test system: ulcerative colitis; settings: human, in vivo, po; cited from earlier work
[3] = test system: ulcerative colitis and Crohn's colitis; experiment: Open one-year dose-escalation study of ADS: efficacy, tolerance and safety; assay type: in vivo, patients; settings: for patients who experienced a relapse: remaining UC patients
From the text: Patients fulfilling the following entry criteria were candidates for the study: (a) proven UC or proven CC; (b) relapsing disease (i.e., a relapse within the past six months) or chronic continous disease activity (i.e. absence of remission (definition: see below) for three months or more); (c) refractory to SAZ (i.e., relapsing disease despite maintenance treatment with SAZ 2 g/day or chronic continous disease despite treatment with glucocorticoids and SAZ) or intolerant of SAZ (i.e., allergic to or otherwise intolerant of SAZ).
The study design was open with an initial dose of ADS 1 g/day (0.5 g b.i.d.), in SAZ intolerant patients. In SAZ refractory patients the initial dose was 2 g/day (1 g b.i.d.). […] In patients on concomitant corticosteroids the dose was gradually tapered and, if possible, the administration was stopped.
(§4) Aone year treatment period was planned including scheduled visits at two weeks and at two, four, six, eight, ten, and 12 months, in addition to in-between visits, if needed. Before entry and at each visit the clinical disease activity was assessed (see below) and a laboratory screening was done. This included blood haemoglobin, reticulocyte count, erythrocyte sedimentation rate, leucocyte count, leucocyte differential count, platelet count, serum concentrations of Na, K, Ca, albumin, creatinine, urea, alanine aminotransferase, lactate dehydrogenase, alkaline phosphatase, bilirubin, and plasma prothrombin, in addition to urine analysis for protein and glucose and microscopy for erythrocytes, leukocytes, and casts.
The clinical activity was based on a diary and the objective findings registered by the investigator. To minimize variation among observers each patient was examined on all study days by the same investigator. All days the week preceeding a scheduled visit the patient recorded the number of bowel movements in the diary, in addition to the presence or absence of blood, and graded abdominal pain and general well-being according to W. R. Best, J. M. Becktel, J. W. Singleton, 'Rederived values of the eight coefficients of the Crohn's Disease Activity Index (CDAI)', 1979 Gastroenterology, 77:843-6) for calculation of the Crohn's disease activity index (CDAI). […] Remission in patients with CC was defined as a CDAI <150 and no evidence of inflammation on sigmoidoscopy. […] Due to the open design of the study no further clinical or endoscopic estimations of efficacy were done.

[4] = test system: PGE2; experiment: Equilibrium in vivo dialysis of faeces with radioimmunoassay of PGE2 (ADS study); design: species or system patients; settings: mean±SD
Protocol: as §1, §2, §3

[5] = HPLC of ADS, 5-ASA and Ac-5-ASA in serum; assay type: in vivo, patients; settings: ulcerative colitis, read-out: Concentrations in serum
Protocol: as §4, §3

[6] = test system: PGE2; experiment: Equilibrium in vivo dialysis of rectum with radioimmunoassay of PGE2 (ADS study); design: species or system patients; settings: mean±SD
Protocol: as §1
Equilibrium in vivo dialysis of rectum was performed after insertion of a 12-cm-long dialysis bag into the emptied rectum as previously described (K. Lauritsen, L.S. Laursen, K. Bukhave, J. Rask-Madsen, "Effects of topical 5-aminosalicylic acid and prednisolone on prostaglandin E2 and leukotriene B4 levels determined by equilibrium in vivo dialysis of rectum in relapsing ulcerative colitis, Gastroenterology 1986;91:837-844). The bag was left for four hours and its contents (rectal dialysate) were analyzed for concentrations of PGE2 (rectal PGEZ).
as §3

O=C(O)c1cc(N=Nc2ccc(O)c(C(=O)O)c2)ccc1O [Olsalazine, disodium-azodisalicylate]
concentration ([1]; Olsalazine dose/day 1 g (n=7), mean±SD of averages in each patient): 100 ± 140 µM
concentration ([1]; Olsalazine dose/day 2 g (n=20), mean±SD): 340 ± 480 µM
concentration ([1]; Olsalazine dose/day 3 g (n=14), mean±SD): 400 ± 580 µM
concentration ([1]; Olsalazine dose/day 4 g (n=18), mean±SD): 270 ± 410 µM
patients in whom the split ratio was below 90%, at least on one occasion ([1]; of all patients): 28%
loose or watery stools (major adverse effect) [2]: 10%
withdrawals due to drug intolerance ([3]; 40 patients, ADS 1-4 g/day up to one year): No patients were withdrawn due to drug intolerance
treatment failures ([3]; UC patients intolerant of SAZ): one of eight
treatment failures ([3]; UC patients refractory to SAZ, of 23): 12
slightly increased levels of alanine aminotransferase or alkaline phosphatase ([3]; in vivo): six cases
treatment failures (CDAI <150 without sigmoidoscopic evidence of inflammation never obtained) ([3]; patients with CC): Five of the nine
treatment failures (clinical and sigmoidoscopic remission never obtained) ([3]; patients with UC (n=31)): Thirteen patients
patients who experienced a relapse ([3]; on 1 g/day): four
patients who experienced a relapse ([3]; on 2 g/day): two
patients who experienced a relapse ([3]; on 3 g/day): eight
patients who experienced a relapse ([3]; on 4 g/day): two
Fecal PGE2 levels ([4]; Crohn's colitis (n=9), Month 6, Entry 1.76±1.94): 0.70±0.68 (0.08-1.81) ng/ml
Fecal PGE2 levels ([4]; Crohn's colitis (n=9), Month 12, Entry 1.76±1.94): 1.23±2.06 (0.04-5.39) ng/ml
Fecal PGE2 levels ([4]; Ulcerative colitis, SAZ intolerant, n=8, Month 6, Entry 1.09±1.18): 0.48±0.85 (0.04-2.55) ng/ml
Fecal PGE2 levels ([4]; Ulcerative colitis, SAZ intolerant, n=8, Month 12, Entry 1.09±1.18, p<0.05): 0.16±0.05 (0.08-0.22) ng/ml
Fecal PGE2 levels ([4]; Ulcerative colitis, SAZ refractory, n=23, Month 6, Entry 1.65±1.80, normal range <0.5, p<0.05): 0.44±1.03 (0.05-4.72) ng/ml
Fecal PGE2 levels ([4]; Ulcerative colitis, SAZ refractory, n=23, Month 12, Entry 1.65±1.80, p<0.05): 0.77±1.09 (0.06-3.73) ng/ml
concentration ([5]; Olsalazine dose/day 1 g (n=9), mean±SD of average in each patient): 9.2 ± 3.4 µM
concentration ([5]; Olsalazine dose/day 2 g (n=14), mean±SD): 16 ± 6.8 µM
concentration ([5]; Olsalazine dose/day 3 g (n=20), mean±SD): 22 ± 8.1 µM
concentration ([5]; Olsalazine dose/day 4 g (n=20), mean±SD): 25 ± 11 µM
Rectal PGE2 levels ([6]; Crohn's colitis (n=9), Month 6, Entry 4.0±5.1): 5.0±4.8 (0.4-13.0) ng/ml
Rectal PGE2 levels ([6]; Crohn's colitis (n=9), Month 12, Entry 4.0±5.1): 3.0±5.7 (0.1-14.6) ng/ml
Rectal PGE2 levels ([6]; Ulcerative colitis, SAZ intolerant, n=8, Month 6, Entry 8.5±15.0): 5.7±11.9 (0.15-32.6) ng/ml
Rectal PGE2 levels ([6]; Ulcerative colitis, SAZ intolerant, n=8, Month 12, Entry 8.5±15.0): 1.6±2.0 (0.32-5.3) ng/ml
Rectal PGE2 levels ([6]; Ulcerative colitis, SAZ refractory, n=23, Month 6, Entry 16.0±15.3, normal range <0.6, p<0.05): 8.1±12.3 (0.05-42.8) ng/ml
Rectal PGE2 levels ([6]; Ulcerative colitis, SAZ refractory, n=23, Month 12, Entry 16.0±15.3): 13.6±15.4 (0.12-49.0) ng/ml
